Assay results reported in ChEMBL document CHEMBL1201862, “PubChem BioAssay data set” (2004).
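Dose response: 5 concentrations. Exposure: 48 h. Format: 96-well plates. Endpoint: linear interpolation; highest concentration if not reached. GI50 marks 50% less growth.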 Calls of active or inactive are those of the source. Rule as the data show it: active = GI50 up to about 1.1 µM and inactive = higher.

Assays:
Test in all cases: inhibition of tumour cell growth, NCI panel, 48 h
[1] = test system: SF-295
[2] = test system: CCRF-CEM
[3] = test system: UO-31
[4] = test system: HCC 2998
[5] = test system: NCI-H460
[6] = test system: OVCAR-3
[7] = test system: SK-MEL-5
[8] = test system: SF-268
[9] = test system: NCI-H522
[10] = test system: OVCAR-8
[11] = test system: UACC-257
[12] = test system: LOX IMVI
[13] = test system: UACC-62
[14] = test system: HCT-116
[15] = test system: HCT-15
[16] = test system: M14
[17] = test system: EKVX
[18] = test system: U-251
[19] = test system: Malme-3M
[20] = test system: RPMI-8226

Row | Structure (SMILES) | GI50 [1] | GI50 [2] | GI50 [3] | GI50 [4] | GI50 [5] | GI50 [6] | GI50 [7] | GI50 [8] | GI50 [9] | GI50 [10] | GI50 [11] | GI50 [12] | GI50 [13] | GI50 [14] | GI50 [15] | GI50 [16] | GI50 [17] | GI50 [18] | GI50 [19] | GI50 [20]
1 | COC(=O)c1cc2c(s1)C(=O)c1ccccc1-2 | > 100 µM (inactive) | > 100 µM (inactive) | > 100 µM (inactive) | > 100 µM (inactive) | > 100 µM (inactive) | > 100 µM (inactive) | > 100 µM (inactive) | > 100 µM (inactive) | > 100 µM (inactive) | > 100 µM (inactive) | > 100 µM (inactive) | > 100 µM (inactive) | > 100 µM (inactive) | > 100 µM (inactive) | > 100 µM | > 100 µM (inactive) | > 100 µM (inactive) | > 100 µM (inactive) | > 100 µM (inactive) | 
2 | C(=C\Nc1ccc(Oc2ccccc2)cc1)/C=N/c1ccc(Oc2ccccc2)cc1 | 15.9 µM (inactive) | 15.3 µM (inactive) | 18.4 µM (inactive) | 15.9 µM (inactive) | 16.7 µM (inactive) | 19 µM (inactive) |  | 21 µM (inactive) | 20 µM (inactive) | 20.2 µM (inactive) | 17.1 µM (inactive) | 15 µM (inactive) |  | 17.4 µM (inactive) | 19.5 µM |  | 18.4 µM (inactive) | 19.1 µM (inactive) | 17.1 µM (inactive) | 21.8 µM (inactive)
3 | O=P1(O)c2ccccc2CS(=O)(=O)Cc2ccccc21 | > 100 µM (inactive) | > 100 µM (inactive) | > 100 µM (inactive) | > 100 µM (inactive) | > 100 µM (inactive) | > 100 µM (inactive) | > 100 µM (inactive) | > 100 µM (inactive) | > 100 µM (inactive) | > 100 µM (inactive) | > 100 µM (inactive) | > 100 µM (inactive) | > 100 µM (inactive) | > 100 µM (inactive) | > 100 µM | > 100 µM (inactive) | > 100 µM (inactive) | > 100 µM (inactive) |  | 
4 | CCCCc1c2cnccc2c(CCCC)c2c1[nH]c1ccccc12 | 7.19 µM (inactive) | 9.38 µM (inactive) | 10.4 µM (inactive) | 23.9 µM (inactive) | 15.7 µM (inactive) | 5.26 µM (inactive) |  | 14.9 µM (inactive) | 12.4 µM (inactive) | 12.9 µM (inactive) | 15.1 µM (inactive) | 13.7 µM (inactive) | 11.6 µM (inactive) | 3.59 µM (inactive) | 6.84 µM | 15.7 µM (inactive) | 14.6 µM (inactive) | 12.8 µM (inactive) | 11.9 µM (inactive) | 2.9 µM (inactive)
5 | COc1ccc(-c2csc3c2[N+]2(C)C=CC=C2C3N2CCCC2)cc1 (centres undefined) | 10.6 µM (inactive) | 28.3 µM (inactive) | 57 µM (inactive) |  | 16.1 µM (inactive) | 13.3 µM (inactive) | 8.59 µM (inactive) | 22 µM (inactive) | 2.43 µM (inactive) | 17.5 µM (inactive) | 7.4 µM (inactive) | 35 µM (inactive) | 15.5 µM (inactive) | 33 µM (inactive) | 37.9 µM | 29.8 µM (inactive) | 20.5 µM (inactive) | 7.01 µM (inactive) | 12.2 µM (inactive) | 8.34 µM (inactive)
6 | C(=C\c1csnn1)/c1cccnc1 | > 100 µM (inactive) |  | > 100 µM (inactive) | > 100 µM (inactive) | > 100 µM (inactive) | > 100 µM (inactive) |  | > 100 µM (inactive) | > 100 µM (inactive) | > 100 µM (inactive) | > 100 µM (inactive) | > 100 µM (inactive) |  | > 100 µM (inactive) | > 100 µM | > 100 µM (inactive) | > 100 µM (inactive) | > 100 µM (inactive) | > 100 µM (inactive) | > 100 µM (inactive)
7 | CC(C)C(=O)/C=C/c1ccc(Br)cc1 | 15.5 µM (inactive) | 3.15 µM (inactive) | 16.4 µM (inactive) | 17.1 µM (inactive) | 14.9 µM (inactive) | 14.2 µM (inactive) | 12.7 µM (inactive) | 23 µM (inactive) | 12.2 µM (inactive) | 23.2 µM (inactive) | 16.5 µM (inactive) | 17.3 µM (inactive) | 14.5 µM (inactive) | 6.14 µM (inactive) |  | 17.9 µM (inactive) | 24 µM (inactive) | 10.9 µM (inactive) |  | 5.38 µM (inactive)
8 | CS(=O)(=O)c1n[nH]c2nc(O)nc(O)c12 | > 10 µM (inactive) | > 10 µM (inactive) |  | > 10 µM (inactive) | > 10 µM (inactive) | > 10 µM (inactive) | > 10 µM (inactive) | > 10 µM (inactive) | > 10 µM (inactive) | > 10 µM (inactive) | > 10 µM (inactive) | > 10 µM (inactive) | > 10 µM (inactive) | > 10 µM (inactive) | > 10 µM | > 10 µM (inactive) | > 10 µM (inactive) | > 10 µM (inactive) | > 10 µM (inactive) | 
9 | CC(=O)/C=C1\CC(=O)N(C)c2ccccc2N1 | > 100 µM (inactive) | > 100 µM (inactive) | > 100 µM (inactive) | > 100 µM (inactive) | > 100 µM (inactive) | > 100 µM (inactive) | 0.57 µM (active) | > 100 µM (inactive) | > 100 µM (inactive) | > 100 µM (inactive) |  | > 100 µM (inactive) | > 100 µM (inactive) | > 100 µM (inactive) |  | > 100 µM (inactive) | > 100 µM (inactive) | > 100 µM (inactive) | > 100 µM (inactive) | 
10 | CC(C)Oc1cccc(N2C(n3ccnc3)=Nc3ccncc3S2(=O)=O)c1 | 34.9 µM (inactive) |  | 21.6 µM (inactive) | 16.9 µM (inactive) | 18.8 µM (inactive) | 9.35 µM (inactive) | 13.2 µM (inactive) | 16.3 µM (inactive) | 9.44 µM (inactive) | 14.5 µM (inactive) | 16.4 µM (inactive) | 16.2 µM (inactive) | 15.7 µM (inactive) | 13.6 µM (inactive) | 13.6 µM | 13.6 µM (inactive) | 16.2 µM (inactive) | 15.4 µM (inactive) | 13.5 µM (inactive) | 3 µM (inactive)
11 | CC(=O)OC1/C=C(\C)C(OC(C)=O)C/C=C(/C)CCC2C(/C=C/C1=O)C2(C)C (centres undefined) | 91 µM (inactive) | > 100 µM (inactive) | 67.5 µM (inactive) | > 100 µM (inactive) | > 100 µM (inactive) | > 100 µM (inactive) | 92.9 µM (inactive) | > 100 µM (inactive) | 47.8 µM (inactive) | > 100 µM (inactive) | > 100 µM (inactive) | > 100 µM (inactive) | > 100 µM (inactive) | > 100 µM (inactive) | > 100 µM | > 100 µM (inactive) | > 100 µM (inactive) | > 100 µM (inactive) | > 100 µM (inactive) | 
12 | S=C(S)N1CCN(c2ccccc2)CC1 | > 100 µM (inactive) |  |  | 71.3 µM (inactive) |  | > 100 µM (inactive) | 20.7 µM (inactive) | 88.3 µM (inactive) | > 100 µM (inactive) | > 100 µM (inactive) | > 100 µM (inactive) | 32.9 µM (inactive) |  | 34.5 µM (inactive) | > 100 µM | > 100 µM (inactive) | > 100 µM (inactive) | 48.5 µM (inactive) | > 100 µM (inactive) | 27.5 µM (inactive)
13 | N#C/N=[N+](\[O-])c1ccc(C(=O)O)cc1 | > 100 µM (inactive) | 32.7 µM (inactive) | 16.6 µM (inactive) | 25.5 µM (inactive) | 28.7 µM (inactive) | 15.2 µM (inactive) |  | 19.4 µM (inactive) | 19.5 µM (inactive) | 17.6 µM (inactive) | 18 µM (inactive) |  | 17.4 µM (inactive) |  | 16.2 µM | 18.2 µM (inactive) | 18.4 µM (inactive) | 19 µM (inactive) |  | 14.5 µM (inactive)
14 | COc1cc(C)cc(OC)c1/C=C/C(=O)O | > 100 µM (inactive) |  | > 100 µM (inactive) | > 100 µM (inactive) | > 100 µM (inactive) | 21.5 µM (inactive) | > 100 µM (inactive) | > 100 µM (inactive) | > 100 µM (inactive) | > 100 µM (inactive) | > 100 µM (inactive) | > 100 µM (inactive) | > 100 µM (inactive) | > 100 µM (inactive) | > 100 µM | > 100 µM (inactive) | > 100 µM (inactive) | > 100 µM (inactive) | > 100 µM (inactive) | > 100 µM (inactive)
15 | COc1ccc2c(c1)OCCC1=C2SCC2(C)CCN=C12 (centres undefined) | > 100 µM (inactive) | > 100 µM (inactive) |  | > 10 µM (inactive) | > 100 µM (inactive) | 72.6 µM (inactive) | 46.5 µM (inactive) | > 100 µM (inactive) | > 100 µM (inactive) | > 100 µM (inactive) |  | > 100 µM (inactive) | > 100 µM (inactive) | > 100 µM (inactive) |  | > 100 µM (inactive) |  | > 100 µM (inactive) |  | > 100 µM (inactive)
16 | C[C@]12CC[C@H](OC3CCCCO3)CC1=CC[C@@H]1C2CC[C@]2(C)/C(=N/OCCC#N)CCC12 (some centres undefined) | 21.3 µM (inactive) |  | 47.8 µM (inactive) | > 100 µM (inactive) | 15.2 µM (inactive) | 68.7 µM (inactive) | 7.74 µM (inactive) |  | 18.5 µM (inactive) | 34.2 µM (inactive) | 6.62 µM (inactive) | 6.38 µM (inactive) | 97.1 µM (inactive) | 5.73 µM (inactive) | > 100 µM | > 100 µM (inactive) | 19.2 µM (inactive) | 40.4 µM (inactive) | > 100 µM (inactive) | > 100 µM (inactive)
